Measured values published in PMC6576746, “Rational discovery of dual-indication multi-target PDE/Kinase inhibitor for precision anti-cancer therapy using structural systems pharmacology” (PLoS Computational Biology, 2019).

Experiments:
Experiment in all cases: biochemical
Design in all cases: DiscoverX KinomeScan competition binding assay across human kinases; per cent of control at 10 and 100 uM
[1] = target: GRK1 (Homo sapiens, UniProt Q15835); conditions: competition binding, % of control; read-out: Percent Control (100 uM Levosimendan)
Method in brief: (§1)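 Binding is expressed as %control, normalised between positive and negative control signals. The compound (levosimendan) was tested at 10 μM and 100 μM in the DiscoverX KinomeScan competition binding format against human kinases.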

[2] = target: CAMKK1 (Homo sapiens, UniProt Q8N5S9); conditions: competition binding, % of control
Method in brief: as §1

[3] = target: RIPK4 (Homo sapiens, UniProt P57078); conditions: competition binding, % of control; read-out: Percent Control (100 uM Levosimendan)
Method in brief: as §1

[4] = target: T1, ABL1(H396P)-nonphosphorylated (Homo sapiens, UniProt P00519, H396P); conditions: competition binding, % of control; read-out: Percent Control (100 uM Levosimendan)
T1 construct: nonphosphorylated
Method in brief: as §1

[5] = target: INSR (Homo sapiens, UniProt P06213); conditions: competition binding, % of control; read-out: Percent Control (100 uM Levosimendan)
Method in brief: as §1

[6] = target: T2, RSK4(Kin.Dom.2-C-terminal) (Homo sapiens, UniProt Q9UK32); conditions: competition binding, % of control
T2 construct: gene RPS6KA6; Kin.Dom.2-C-terminal
Method in brief: as §1

[7] = target: T3, JAK2(JH1domain-catalytic) (Homo sapiens, UniProt O60674); conditions: competition binding, % of control
T3 construct: JH1domain-catalytic
Method in brief: as §1

[8] = target: PAK3 (Homo sapiens, UniProt O75914); conditions: competition binding, % of control; read-out: Percent Control (100 uM Levosimendan)
Method in brief: as §1

[9] = target: CDKL2 (Homo sapiens, UniProt Q92772); conditions: competition binding, % of control; read-out: Percent Control (100 uM Levosimendan)
Method in brief: as §1

[10] = target: PLK4 (Homo sapiens, UniProt O00444); conditions: competition binding, % of control
Method in brief: as §1

[11] = target: MET(M1250T) (Homo sapiens, UniProt P08581, M1250T); conditions: competition binding, % of control; read-out: Percent Control (100 uM Levosimendan)
Method in brief: as §1

[12] = target: PLK2 (Homo sapiens, UniProt Q9NYY3); conditions: competition binding, % of control; read-out: Percent Control (100 uM Levosimendan)
Method in brief: as §1

[13] = target: PIK3CB (Homo sapiens, UniProt P42338); conditions: competition binding, % of control; read-out: Percent Control (100 uM Levosimendan)
Method in brief: as §1

[14] = target: T4, ABL1-phosphorylated (Homo sapiens, UniProt P00519); conditions: competition binding, % of control
T4 construct: phosphorylated
Method in brief: as §1

[15] = target: RIOK2 (Homo sapiens, UniProt Q9BVS4); conditions: competition binding, % of control
Method in brief: as §1

[16] = target: DAPK2 (Homo sapiens, UniProt Q9UIK4); conditions: competition binding, % of control; read-out: Percent Control (100 uM Levosimendan)
Method in brief: as §1

[17] = target: STK33 (Homo sapiens, UniProt Q9BYT3); conditions: competition binding, % of control; read-out: Percent Control (100 uM Levosimendan)
Method in brief: as §1

[18] = target: CLK1 (Homo sapiens, UniProt P49759); conditions: competition binding, % of control; read-out: Percent Control (100 uM Levosimendan)
Method in brief: as §1

[19] = read-out: Percent Control (10 uM Levosimendan)
[20] = read-out: Percent Control (100 uM Levosimendan)

Sequence of PLK4 (O00444 whole entry): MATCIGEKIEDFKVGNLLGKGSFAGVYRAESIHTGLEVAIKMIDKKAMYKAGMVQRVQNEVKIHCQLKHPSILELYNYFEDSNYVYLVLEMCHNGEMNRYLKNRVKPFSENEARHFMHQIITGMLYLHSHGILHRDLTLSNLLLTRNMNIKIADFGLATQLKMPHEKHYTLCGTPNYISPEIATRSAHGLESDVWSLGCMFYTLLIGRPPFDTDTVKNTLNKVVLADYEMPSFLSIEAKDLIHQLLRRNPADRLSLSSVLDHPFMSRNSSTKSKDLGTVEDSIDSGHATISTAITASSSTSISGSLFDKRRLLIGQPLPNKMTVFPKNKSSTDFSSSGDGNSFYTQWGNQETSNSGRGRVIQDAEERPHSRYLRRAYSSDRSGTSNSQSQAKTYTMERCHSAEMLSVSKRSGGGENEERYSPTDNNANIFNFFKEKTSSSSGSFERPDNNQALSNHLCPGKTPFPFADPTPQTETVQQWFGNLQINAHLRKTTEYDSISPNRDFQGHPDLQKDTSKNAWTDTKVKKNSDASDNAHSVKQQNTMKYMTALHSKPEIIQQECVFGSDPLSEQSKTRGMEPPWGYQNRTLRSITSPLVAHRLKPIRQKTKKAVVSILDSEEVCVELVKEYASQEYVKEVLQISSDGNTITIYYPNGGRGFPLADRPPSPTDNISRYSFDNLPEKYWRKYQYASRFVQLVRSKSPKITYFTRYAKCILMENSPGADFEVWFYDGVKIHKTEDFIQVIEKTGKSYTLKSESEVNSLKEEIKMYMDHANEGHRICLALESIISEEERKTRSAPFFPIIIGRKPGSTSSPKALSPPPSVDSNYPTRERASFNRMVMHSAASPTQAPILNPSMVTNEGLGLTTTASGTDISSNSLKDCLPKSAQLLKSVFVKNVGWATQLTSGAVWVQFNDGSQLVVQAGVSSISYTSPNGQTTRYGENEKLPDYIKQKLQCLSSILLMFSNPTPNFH
T2 sequence (Q9UK32 whole entry): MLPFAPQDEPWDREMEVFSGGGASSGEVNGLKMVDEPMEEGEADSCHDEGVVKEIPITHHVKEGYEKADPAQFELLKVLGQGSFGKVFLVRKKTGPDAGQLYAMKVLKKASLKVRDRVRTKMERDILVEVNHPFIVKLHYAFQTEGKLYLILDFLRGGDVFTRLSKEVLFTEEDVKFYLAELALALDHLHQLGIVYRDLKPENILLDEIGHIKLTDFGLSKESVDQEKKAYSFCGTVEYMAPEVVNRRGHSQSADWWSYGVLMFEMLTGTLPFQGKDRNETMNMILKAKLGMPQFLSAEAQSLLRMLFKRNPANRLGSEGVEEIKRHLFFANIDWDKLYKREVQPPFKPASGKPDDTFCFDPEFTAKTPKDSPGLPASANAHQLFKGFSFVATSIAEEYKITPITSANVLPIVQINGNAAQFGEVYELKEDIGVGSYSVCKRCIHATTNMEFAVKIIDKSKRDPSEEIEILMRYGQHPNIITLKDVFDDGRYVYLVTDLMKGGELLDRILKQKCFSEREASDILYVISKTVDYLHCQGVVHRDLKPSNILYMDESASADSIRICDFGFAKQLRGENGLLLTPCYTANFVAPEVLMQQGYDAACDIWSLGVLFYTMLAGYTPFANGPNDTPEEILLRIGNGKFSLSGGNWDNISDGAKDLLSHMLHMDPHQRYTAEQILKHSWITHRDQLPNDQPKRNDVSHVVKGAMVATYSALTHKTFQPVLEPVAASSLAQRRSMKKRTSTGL
T3 sequence (O60674 whole entry): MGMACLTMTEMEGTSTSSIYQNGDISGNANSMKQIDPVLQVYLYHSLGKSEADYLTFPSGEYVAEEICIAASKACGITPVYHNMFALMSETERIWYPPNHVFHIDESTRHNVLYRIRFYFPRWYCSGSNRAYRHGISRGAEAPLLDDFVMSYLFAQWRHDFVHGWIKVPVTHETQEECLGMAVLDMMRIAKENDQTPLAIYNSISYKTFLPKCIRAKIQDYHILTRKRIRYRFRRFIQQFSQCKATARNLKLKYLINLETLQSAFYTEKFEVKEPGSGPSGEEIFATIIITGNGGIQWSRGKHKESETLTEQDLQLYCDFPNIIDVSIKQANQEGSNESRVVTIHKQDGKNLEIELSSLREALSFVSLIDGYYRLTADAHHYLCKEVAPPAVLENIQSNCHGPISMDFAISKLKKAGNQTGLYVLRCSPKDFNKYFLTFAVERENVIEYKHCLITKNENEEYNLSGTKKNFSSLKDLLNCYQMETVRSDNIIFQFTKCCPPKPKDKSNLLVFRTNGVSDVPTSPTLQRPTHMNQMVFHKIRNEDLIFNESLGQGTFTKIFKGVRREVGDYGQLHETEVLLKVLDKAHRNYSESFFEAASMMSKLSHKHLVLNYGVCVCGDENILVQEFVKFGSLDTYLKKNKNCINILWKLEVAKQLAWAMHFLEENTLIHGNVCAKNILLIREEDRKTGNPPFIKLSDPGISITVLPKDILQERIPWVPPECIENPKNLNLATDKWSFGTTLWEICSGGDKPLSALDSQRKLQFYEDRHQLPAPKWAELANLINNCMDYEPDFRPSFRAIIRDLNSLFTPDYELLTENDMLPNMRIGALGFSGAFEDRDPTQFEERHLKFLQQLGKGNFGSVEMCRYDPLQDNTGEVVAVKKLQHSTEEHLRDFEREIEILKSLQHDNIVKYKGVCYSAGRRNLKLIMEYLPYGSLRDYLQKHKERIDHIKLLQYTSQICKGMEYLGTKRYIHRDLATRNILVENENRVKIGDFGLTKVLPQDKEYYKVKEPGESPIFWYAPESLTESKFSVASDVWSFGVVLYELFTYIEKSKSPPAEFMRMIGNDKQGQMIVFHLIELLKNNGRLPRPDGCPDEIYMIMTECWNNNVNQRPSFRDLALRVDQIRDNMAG
Sequence of RIOK2 (Q9BVS4 whole entry): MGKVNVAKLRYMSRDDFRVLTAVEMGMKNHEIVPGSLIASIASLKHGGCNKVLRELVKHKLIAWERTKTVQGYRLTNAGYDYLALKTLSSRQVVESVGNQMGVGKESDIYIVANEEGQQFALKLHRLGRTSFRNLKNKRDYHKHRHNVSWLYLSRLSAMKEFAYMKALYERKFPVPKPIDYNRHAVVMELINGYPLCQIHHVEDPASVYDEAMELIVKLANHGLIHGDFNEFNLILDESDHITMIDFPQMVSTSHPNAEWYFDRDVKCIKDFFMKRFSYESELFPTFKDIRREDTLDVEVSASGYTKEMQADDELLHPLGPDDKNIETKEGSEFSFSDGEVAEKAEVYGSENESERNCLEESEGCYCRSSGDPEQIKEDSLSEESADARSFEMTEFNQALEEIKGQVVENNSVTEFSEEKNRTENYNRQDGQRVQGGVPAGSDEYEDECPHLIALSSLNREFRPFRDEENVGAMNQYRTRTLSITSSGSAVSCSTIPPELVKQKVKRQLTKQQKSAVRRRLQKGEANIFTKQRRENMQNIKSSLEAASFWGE
Sequence of CAMKK1 (Q8N5S9 whole entry): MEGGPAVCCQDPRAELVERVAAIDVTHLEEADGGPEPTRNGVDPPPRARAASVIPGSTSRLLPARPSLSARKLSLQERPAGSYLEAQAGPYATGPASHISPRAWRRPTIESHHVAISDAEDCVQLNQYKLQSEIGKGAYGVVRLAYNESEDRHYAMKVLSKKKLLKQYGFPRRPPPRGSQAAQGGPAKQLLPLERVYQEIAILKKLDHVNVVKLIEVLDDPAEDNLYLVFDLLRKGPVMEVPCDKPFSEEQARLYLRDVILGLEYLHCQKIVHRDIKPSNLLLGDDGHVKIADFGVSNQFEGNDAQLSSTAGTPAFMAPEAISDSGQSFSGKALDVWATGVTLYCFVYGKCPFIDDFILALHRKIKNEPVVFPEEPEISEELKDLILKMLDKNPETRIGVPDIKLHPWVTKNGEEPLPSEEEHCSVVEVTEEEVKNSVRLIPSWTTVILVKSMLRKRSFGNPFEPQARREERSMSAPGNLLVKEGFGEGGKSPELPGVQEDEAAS
Sequence of CDKL2 (Q92772 whole entry): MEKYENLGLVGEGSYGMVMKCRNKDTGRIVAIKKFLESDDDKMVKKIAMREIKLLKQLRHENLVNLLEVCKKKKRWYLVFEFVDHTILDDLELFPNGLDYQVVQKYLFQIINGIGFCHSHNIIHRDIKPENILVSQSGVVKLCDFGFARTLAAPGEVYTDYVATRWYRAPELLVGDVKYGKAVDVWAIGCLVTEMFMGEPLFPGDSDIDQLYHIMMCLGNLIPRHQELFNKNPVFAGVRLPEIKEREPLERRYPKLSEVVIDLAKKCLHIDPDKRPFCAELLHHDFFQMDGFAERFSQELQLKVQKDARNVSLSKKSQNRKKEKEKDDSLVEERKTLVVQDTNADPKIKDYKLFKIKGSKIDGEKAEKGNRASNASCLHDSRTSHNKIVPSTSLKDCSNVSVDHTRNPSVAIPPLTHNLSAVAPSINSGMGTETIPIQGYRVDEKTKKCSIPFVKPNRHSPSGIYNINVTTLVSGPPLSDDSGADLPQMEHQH
Sequence of DAPK2 (Q9UIK4 whole entry): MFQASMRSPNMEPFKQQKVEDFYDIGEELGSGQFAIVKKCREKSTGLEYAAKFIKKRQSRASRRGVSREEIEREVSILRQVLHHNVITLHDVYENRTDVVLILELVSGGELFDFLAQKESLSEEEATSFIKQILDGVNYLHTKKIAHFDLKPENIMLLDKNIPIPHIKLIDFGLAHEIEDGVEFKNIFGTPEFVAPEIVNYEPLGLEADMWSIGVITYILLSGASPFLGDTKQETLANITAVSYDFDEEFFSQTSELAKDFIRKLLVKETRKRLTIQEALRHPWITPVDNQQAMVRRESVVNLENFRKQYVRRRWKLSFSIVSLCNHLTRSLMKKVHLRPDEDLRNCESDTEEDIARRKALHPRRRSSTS

## C[C@@H]1CC(=O)NN=C1c1ccc(NN=C(C#N)C#N)cc1 [levosimendan]
[1]
  remaining binding at 100 µM: 67%
[2]; [19]
  remaining binding at 10 µM: 82%
[2]; [20]
  remaining binding at 100 µM: 51%
[3]
  remaining binding at 100 µM: 99%
[4]
  remaining binding at 100 µM: 60%
[5]
  remaining binding at 100 µM: 76%
[6]; [19]
  remaining binding at 10 µM: 82%
[6]; [20]
  remaining binding at 100 µM: 31%
[7]; [19]
  remaining binding at 10 µM: 88%
[7]; [20]
  remaining binding at 100 µM: 49%
[8]
  remaining binding at 100 µM: 99%
[9]
  remaining binding at 100 µM: 100%
[10]; [19]
  remaining binding at 10 µM: 100%
[10]; [20]
  remaining binding at 100 µM: 45%
[11]
  remaining binding at 100 µM: 91%
[12]
  remaining binding at 100 µM: 72%
[13]
  remaining binding at 100 µM: 100%
[14]; [19]
  remaining binding at 10 µM: 100%
[14]; [20]
  remaining binding at 100 µM: 37%
[15]; [19]
  remaining binding at 10 µM: 67%
[15]; [20]
  remaining binding at 100 µM: 27%
[16]
  remaining binding at 100 µM: 73%
[17]
  remaining binding at 100 µM: 100%
[18]
  remaining binding at 100 µM: 89%
